One may read the IC50 as the midpoint of a concentration-inhibition curve. A high value points to weaker potency.

Assay [1] has as its system Staphylococcus aureus. Kind of assay: Inhibition of planktonic growth of Staphylococcus aureus SH1000. Format: organism-based.
Assay [2] has as its system Pseudomonas aeruginosa. Kind of assay: Antibiofilm activity against Pseudomonas aeruginosa PA14 after 24 hrs by crystal violet staining based method. Format: functional.
The subject of a further assay is A-375. Kind of assay: Antiproliferative activity against human A375 cells after 48 hrs by MTT assay. It counts as functional, cell-based. Conditions: A-375, 48 h.
Assay [3] relates to Salmonella typhimurium. Kind of assay: Inhibition of planktonic growth of Salmonella typhimurium ATCC 14028. Format: organism-based, Salmonella enterica subsp. enterica serovar Typhimurium. Conditions: Salmonella enterica.
Assay [4] has as its system Pseudomonas aeruginosa. Kind of assay: Inhibition of planktonic growth of Pseudomonas aeruginosa PA14 cells. It counts as organism-based.
For assay [5], the system named is Staphylococcus aureus. Kind of assay: Antibiofilm activity against Staphylococcus aureus SH1000 after 48 hrs by crystal violet staining based method. Format: functional.
Assay [6] relates to Salmonella typhimurium. Kind of assay: Antibiofilm activity against Salmonella typhimurium ATCC 14028 after 24 hrs by crystal violet staining based method. It counts as functional, Salmonella enterica subsp. enterica serovar Typhimurium.
For the next assay, the system named is MIA PaCa-2. Kind of assay: Antiproliferative activity against human MIAPaCa2 cells after 48 hrs by MTT assay. Format: functional, cell-based. Conditions: MIA PaCa-2, 48 h. For orientation: Tetrazolium dyes change colour on reduction, which living cells bring about.

Bounds are passed on as bounds.

Consider `Nc1nc(Cc2ccccc2)c(-c2ccccc2Br)n1CC(=O)Nc1ccccc1`, for which the half-maximal inhibitory concentration (IC50) in the assay with Staphylococcus aureus [1] is above 400 µM; with A-375, 5.2 µM; in the assay on Salmonella typhimurium [3], above 400 µM; with Pseudomonas aeruginosa [4] it was above 400 µM; in the assay with MIA PaCa-2, 5.7 µM. Further, the MBIC50 with Pseudomonas aeruginosa [2], in the assay with Staphylococcus aureus [5] and in the assay with Salmonella typhimurium [6] was above 400 µM each time.
Turning to `O=C(OC[C@H]1O[C@@H](OC(=O)c2cc(O)c(O)c(OC(=O)c3cc(O)c(O)c(O)c3)c2)[C@H](OC(=O)c2cc(O)c(O)c(OC(=O)c3cc(O)c(O)c(O)c3)c2)[C@@H](OC(=O)c2cc(O)c(O)c(OC(=O)c3cc(O)c(O)c(O)c3)c2)[C@@H]1OC(=O)c1cc(O)c(O)c(OC(=O)c2cc(O)c(O)c(O)c2)c1)c1cc(O)c(O)c(OC(=O)c2cc(O)c(O)c(O)c2)c1` [TANNIC ACID], the IC50 in the assay on Staphylococcus aureus [1], in the assay with Salmonella typhimurium [3] and in the assay with Pseudomonas aeruginosa [4] was above 400 µM each time. The MBIC50 with Pseudomonas aeruginosa [2] is 27.7 µM; in the assay with Staphylococcus aureus [5], 115.3 µM; in the assay on Salmonella typhimurium [6], 18.8 µM.
Regarding `Nc1nc(Cc2ccccc2)c(-c2ccccc2Br)n1CC(=O)NCc1ccccc1`, the IC50 with Staphylococcus aureus [1] is 55.7 µM; in the assay on Salmonella typhimurium [3], above 400 µM; in the assay with Pseudomonas aeruginosa [4], 55.7 µM. Also, the MBIC50 in the assay on Pseudomonas aeruginosa [2] was determined as 382.1 µM; with Staphylococcus aureus [5], 41.5 µM; in the assay on Salmonella typhimurium [6], 38.8 µM.
As to `CCCCCCCc1nc(N)n(CC(=O)Nc2ccc(C)cc2)c1-c1ccccc1Br`, the 50% inhibitory concentration (IC50) is 22.8 µM in the assay on Staphylococcus aureus [1]; 5.2 µM in the assay on A-375; above 400 µM with Salmonella typhimurium [3]; 190 µM with Pseudomonas aeruginosa [4]; 7 µM with MIA PaCa-2. Moreover, the MBIC50 with Pseudomonas aeruginosa [2] turned out to be 291.1 µM; in the assay with Staphylococcus aureus [5] it was 14.4 µM; in the assay with Salmonella typhimurium [6], 37.7 µM.
In the case of `CCCCCCc1nc(N)n(CC(=O)Nc2ccc(C)cc2)c1-c1ccccc1Br`, the concentration for half-maximal inhibition (IC50) in the assay with Staphylococcus aureus [1] was 23.1 µM; in the assay with A-375 it was 5.1 µM; with Salmonella typhimurium [3], above 400 µM; with Pseudomonas aeruginosa [4], 49.6 µM; in the assay on MIA PaCa-2, 6.5 µM. For the same molecule, the MBIC50 with Pseudomonas aeruginosa [2] was 29.5 µM; with Staphylococcus aureus [5], 12.6 µM; in the assay with Salmonella typhimurium [6], 21.8 µM.
Turning to `Cc1ccc(NC(=O)Cn2c(N)nc(Cc3ccccc3)c2-c2ccccc2Br)cc1`, the IC50 with Staphylococcus aureus [1] amounted to 12.3 µM; in the assay on A-375 it was 2 µM; in the assay on Salmonella typhimurium [3], 29.8 µM; in the assay with Pseudomonas aeruginosa [4], 13.8 µM; in the assay with MIA PaCa-2, 3.8 µM. Further, the MBIC50 in the assay on Pseudomonas aeruginosa [2] came to 16.8 µM; in the assay on Staphylococcus aureus [5], 7.6 µM; in the assay on Salmonella typhimurium [6], 6 µM.
With `CC(C)(C)c1ccc(Cc2nc(N)n(CC(=O)Nc3ccc([N+](=O)[O-])cc3)c2-c2ccccc2Br)cc1`, the IC50 with Staphylococcus aureus [1], with Salmonella typhimurium [3] and in the assay with Pseudomonas aeruginosa [4] was above 400 µM each time. The MBIC50 in the assay on Pseudomonas aeruginosa [2], in the assay on Staphylococcus aureus [5] and with Salmonella typhimurium [6] was above 400 µM in each case.
In the case of `O=C(N/N=C/c1ccc([N+](=O)[O-])o1)c1ccc(O)cc1` [NIFUROXAZIDE], the IC50 in the assay with Staphylococcus aureus [1], with Salmonella typhimurium [3] and with Pseudomonas aeruginosa [4] was above 400 µM throughout. Besides, the MBIC50 in the assay on Pseudomonas aeruginosa [2], with Staphylococcus aureus [5] and in the assay on Salmonella typhimurium [6] was above 400 µM in each case.
In the case of `Cc1ccc(Cc2nc(N)n(CC(=O)Nc3ccccc3)c2-c2ccccc2Br)cc1`, the IC50 with Staphylococcus aureus [1] was above 400 µM; in the assay on A-375 it was 2.5 µM; with Salmonella typhimurium [3], above 400 µM; in the assay on Pseudomonas aeruginosa [4], above 400 µM; in the assay with MIA PaCa-2, 9.2 µM. Also, the MBIC50 in the assay with Pseudomonas aeruginosa [2], in the assay with Staphylococcus aureus [5] and with Salmonella typhimurium [6] was above 400 µM throughout.
On to `CC(=O)O[C@H]1C(=O)[C@@]2(C)[C@H]([C@H](OC(=O)c3ccccc3)[C@]3(O)C[C@H](OC(=O)[C@H](O)[C@@H](NC(=O)c4ccccc4)c4ccccc4)C(C)=C1C3(C)C)[C@]1(OC(C)=O)CO[C@@H]1C[C@@H]2O` [PACLITAXEL], for which the concentration for half-maximal inhibition (IC50) with A-375 was determined as 0.7 µM; in the assay with MIA PaCa-2, 2.5 µM.
Regarding `Cc1ccc(NC(=O)Cn2c(N)nc(CC3CCCC3)c2-c2ccccc2Br)cc1`, the concentration for half-maximal inhibition (IC50) with Staphylococcus aureus [1] was above 400 µM; with A-375 it was 47.8 µM; with Salmonella typhimurium [3], above 400 µM; with Pseudomonas aeruginosa [4], above 400 µM; in the assay with MIA PaCa-2, 80.5 µM. The figures for the MBIC50 in the assay on Pseudomonas aeruginosa [2], with Staphylococcus aureus [5] and in the assay with Salmonella typhimurium [6] were above 400 µM, 289.6 µM and above 400 µM, respectively.
As to `Nc1nc(CC2CC2)c(-c2ccccc2Br)n1CC(=O)Nc1ccccc1`, the IC50 with Staphylococcus aureus [1] was 130 µM; in the assay on A-375 it was 5.8 µM; in the assay with Salmonella typhimurium [3], above 400 µM; in the assay with Pseudomonas aeruginosa [4], 155 µM; with MIA PaCa-2, 6.9 µM. For the same molecule, the figures for the MBIC50 in the assay on Pseudomonas aeruginosa [2], in the assay on Staphylococcus aureus [5] and in the assay on Salmonella typhimurium [6] were 86.3 µM, 29.2 µM and 107.6 µM, respectively.
Take `Cc1ccc(NC(=O)Cn2c(N)nc(CC3CC3)c2-c2ccccc2Br)cc1`: the IC50 was 30.6 µM in the assay on Staphylococcus aureus [1]; 2.6 µM with A-375; 24.5 µM in the assay on Salmonella typhimurium [3]; 23.6 µM in the assay with Pseudomonas aeruginosa [4]; 3.5 µM with MIA PaCa-2. The figures for the MBIC50 with Pseudomonas aeruginosa [2], with Staphylococcus aureus [5] and in the assay on Salmonella typhimurium [6] were 16 µM, 21.9 µM and 21.3 µM, respectively.
As for `Nc1nc(CC2CCCCC2)c(-c2ccccc2Br)n1CC(=O)Nc1ccccc1`, the concentration for half-maximal inhibition (IC50) in the assay with Staphylococcus aureus [1] is above 400 µM; in the assay on A-375, 40.6 µM; with Salmonella typhimurium [3], above 400 µM; in the assay with Pseudomonas aeruginosa [4], above 400 µM; in the assay with MIA PaCa-2, 89 µM. Moreover, the MBIC50 in the assay with Pseudomonas aeruginosa [2], in the assay with Staphylococcus aureus [5] and in the assay with Salmonella typhimurium [6] was above 400 µM in each case.
For the molecule `COc1ccc(Cc2nc(N)n(CC(=O)Nc3ccc(C)cc3)c2-c2ccccc2Br)cc1`, the IC50 in the assay on Staphylococcus aureus [1] came out at 16.1 µM; with A-375, 2.4 µM; in the assay with Salmonella typhimurium [3], 50.5 µM; in the assay on Pseudomonas aeruginosa [4], 24.6 µM; in the assay with MIA PaCa-2, 5.2 µM. Moreover, the MBIC50 in the assay with Pseudomonas aeruginosa [2] came out at 8.9 µM; in the assay with Staphylococcus aureus [5], 8.2 µM; in the assay with Salmonella typhimurium [6], 6.3 µM.
For the molecule `CC(C)(C)c1ccc(Cc2nc(N)n(CC(=O)Nc3ccccc3)c2-c2ccccc2Br)cc1`, the IC50 in the assay with Staphylococcus aureus [1] was 7.8 µM; in the assay with A-375 it was 2.8 µM; in the assay with Salmonella typhimurium [3], above 400 µM; with Pseudomonas aeruginosa [4] it was above 400 µM; in the assay with MIA PaCa-2, 4.9 µM. Also, the MBIC50 in the assay with Pseudomonas aeruginosa [2] was found to be 124.3 µM; in the assay on Staphylococcus aureus [5] it was 6.5 µM; in the assay with Salmonella typhimurium [6], 12.5 µM.
Consider `COc1ccc(NC(=O)Cn2c(N)nc(Cc3ccc(C(C)(C)C)cc3)c2-c2ccccc2Br)cc1`, for which the figures for the concentration for half-maximal inhibition (IC50) with Staphylococcus aureus [1], with Salmonella typhimurium [3] and with Pseudomonas aeruginosa [4] were 37.2 µM, above 400 µM and above 400 µM, respectively. In addition, the MBIC50 with Pseudomonas aeruginosa [2] was above 400 µM; in the assay with Staphylococcus aureus [5], 11.5 µM; with Salmonella typhimurium [6], 231.2 µM.
Turning to `CC(C)(C)c1ccc(Cc2nc(N)n(CC(=O)NCc3ccccc3)c2-c2ccccc2Br)cc1`, the IC50 in the assay with Staphylococcus aureus [1], in the assay on Salmonella typhimurium [3] and in the assay on Pseudomonas aeruginosa [4] was above 400 µM throughout. The MBIC50 with Pseudomonas aeruginosa [2], in the assay on Staphylococcus aureus [5] and with Salmonella typhimurium [6] was above 400 µM each time.
In the case of `O=c1cc(-c2ccccc2)oc2cc(O)c(O)c(O)c12` [BAICALEIN], the IC50 in the assay with Staphylococcus aureus [1], in the assay on Salmonella typhimurium [3] and in the assay with Pseudomonas aeruginosa [4] was above 400 µM in each case. For the same molecule, the MBIC50 in the assay on Pseudomonas aeruginosa [2] is above 400 µM; in the assay on Staphylococcus aureus [5], 77.5 µM; in the assay with Salmonella typhimurium [6] it was above 400 µM.

(Values after ChEMBL document CHEMBL4190235, “Polysubstituted 2-aminoimidazoles as anti-biofilm and antiproliferative agents: Discovery of potent lead” (Eur J Med Chem, 2017).)
